Experimental data as given in BindingDB's records for doi:10.7270/Q2T72FVT (University of Pittsburgh, 2007).

Molecular target: Serine/threonine-protein kinase PLK1 (Homo sapiens, UniProt P53350)
Assay: Plk1 polo box domain binding inhibitors, dose response, biochemical, fluorescence polarization (AID 877)

Serine/threonine-protein kinase PLK1, sequence (P53350 whole entry, the tested form may be a part): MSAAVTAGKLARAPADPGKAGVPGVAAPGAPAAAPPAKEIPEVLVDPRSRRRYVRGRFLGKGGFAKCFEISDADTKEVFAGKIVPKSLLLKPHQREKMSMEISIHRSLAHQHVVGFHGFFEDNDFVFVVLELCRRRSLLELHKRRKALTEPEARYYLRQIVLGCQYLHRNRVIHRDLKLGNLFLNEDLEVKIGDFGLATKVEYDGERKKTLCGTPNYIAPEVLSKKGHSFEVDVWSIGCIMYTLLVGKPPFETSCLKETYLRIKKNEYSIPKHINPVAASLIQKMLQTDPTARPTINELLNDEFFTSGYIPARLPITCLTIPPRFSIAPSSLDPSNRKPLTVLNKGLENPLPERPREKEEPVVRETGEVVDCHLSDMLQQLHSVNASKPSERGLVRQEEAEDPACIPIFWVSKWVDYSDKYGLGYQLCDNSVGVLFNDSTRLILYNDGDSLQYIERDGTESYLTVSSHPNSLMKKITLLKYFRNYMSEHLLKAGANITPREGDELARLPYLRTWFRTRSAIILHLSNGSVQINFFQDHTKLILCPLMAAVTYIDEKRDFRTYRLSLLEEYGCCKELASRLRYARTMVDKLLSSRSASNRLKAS

First: O=C1C(=O)c2ccccc2-c2ccccc21
Second: Nc1ccc2c(c1)C(=O)C(=O)c1ccccc1-2 [2-Amino-phenanthrene-9,10-dione]
The IC50 of the first is 1.7-fold higher: 10.1 µM for the first, 5.9 µM for the second.

`Cc1ccc(-n2c(O)c(C=NCCN3CCOCC3)c(=O)[nH]c2=O)cc1` and `Cc1ccc(OCC(=O)Nc2ccc(N3CCOCC3)cc2)cc1` [2-(4-methylphenoxy)-N-(4-morpholin-4-ylphenyl)acetamide] cannot be ordered by IC50: greater than 50 µM for the first, greater than 50 µM for the second.

Going from `CCOC(=O)c1ccc(NC(=O)c2c(O)[nH]c(=O)[nH]c2=O)cc1` to `CCOC(=O)c1cc2n(c1N)-c1ccccc1C2=O` [1-amino-4-keto-pyrrol[1,2-a]indole-2-carboxylic acid ethyl ester], the IC50 rises from 2.28 µM to 19.9 µM (8.7-fold). The first is the more potent here.

`O=c1[nH]cc(COCc2ccccc2)c(=O)[nH]1` and `NC(=O)Cn1c(S(=O)(=O)Cc2ccccc2)nc2ccccc21` [2-(2-benzylsulfonylbenzimidazol-1-yl)acetamide] cannot be ordered by IC50: greater than 50 µM for the first, greater than 50 µM for the second.

Going from `Cc1ccc(NC2=CC(=NS(=O)(=O)c3cccs3)c3ccccc3C2=O)c(C)c1` to `Cc1oc2c(c1C(=O)c1ccccc1)C(=O)C(=O)c1ccccc1-2` [2-methyl-3-(phenylcarbonyl)benzo[g][1]benzofuran-4,5-dione], the IC50 falls from greater than 50 µM to 43.6 µM. The second is the more potent here.

`CN1C(=O)N(C)C(=O)C2(Sc3ccccc3C2=O)C1=O` [1',3'-dimethylspiro[benzothiophene-2,5'-hexahydropyrimidine]-2',3,4',6'-diquinone] and `Cc1ccc2c(c1)CC1(CN2C)C(=O)NC(=O)N(c2ccccc2C)C1=O` (stereo not given) [1',6'-dimethyl-1-(2-methylphenyl)spiro[1,3-diazinane-5,3'-2,4-dihydroquinoline]-2,4,6-trione] cannot be ordered by IC50: greater than 50 µM for the first, greater than 50 µM for the second.

Going from `Cc1nc2c(=O)n(C)c(=O)nc-2n(C)n1` [1,3,6-Trimethyl-1H-pyrimido[5,4-e][1,2,4]triazine-5,7-dione] to `Cn1nc(-c2ccc(Cl)cc2)nc2c(=O)n(C)c(=O)nc1-2` [3-(4-Chloro-phenyl)-1,6-dimethyl-1H-pyrimido[5,4-e][1,2,4]triazine-5,7-dione], the IC50 falls from 14.6 µM to 2.46 µM (5.9-fold). The second is the more potent here.

Compared with `Cc1ccc(CNC(=O)c2cc3c(=O)n(C)c4ccccc4c3n2C)cc1` [1,5-dimethyl-N-[(4-methylphenyl)methyl]-4-oxidanylidene-pyrrolo[3,2-c]quinoline-2-carboxamide], `Cn1c(=O)c(NCCO)c2c3c(cccc31)C(=O)c1ccccc1-2` [1-(2-Hydroxy-ethylamino)-3-methyl-3H-naphtho[1,2,3-de]quinoline-2,7-dione] is lower in IC50: greater than 50 µM for the first, 1.81 µM for the second.

`COc1cc(S(=O)(=O)N2CCCCCC2)ccc1-n1cnnn1` [1-(3-Methoxy-4-tetrazol-1-yl-benzenesulfonyl)-azepane] and `O=C(c1ccc(-n2cnnn2)cc1)N1CCCCC1` [1-piperidinyl-[4-(1-tetrazolyl)phenyl]methanone] cannot be ordered by IC50: greater than 50 µM for the first, greater than 50 µM for the second.

`COc1ccc(CC2NCCC3(O)CCCCC23)cc1` (stereo not given) [1-(4-Methoxy-benzyl)-octahydro-isoquinolin-4a-ol] and `COc1ccc(Cn2c(=O)sc3ccccc32)cc1` [3-(4-Methoxy-benzyl)-3H-benzothiazol-2-one] cannot be ordered by IC50: greater than 50 µM for the first, greater than 50 µM for the second.

`O=C1CN(c2ccc(Br)cc2)C(=O)N1CC(=O)N1CCCc2ccccc21` [1-(4-bromophenyl)-3-[2-(3,4-dihydro-1(2H)-quinolinyl)-2-oxoethyl]-2,4-imidazolidinedione] and `O=C(CN1C(=O)c2ccccc2C1=O)N1CCN(c2nnc(-c3ccccc3)c3ccccc23)CC1` [2-[2-keto-2-[4-(4-phenylphthalazin-1-yl)piperazino]ethyl]isoindoline-1,3-quinone] cannot be ordered by IC50: greater than 50 µM for the first, greater than 50 µM for the second.

`CCCSc1nc(N2CCOCC2)c2c(c1C#N)CCCC2` [1-(4-morpholinyl)-3-(propylthio)-5,6,7,8-tetrahydroisoquinoline-4-carbonitrile] and `CC(C)Sc1nc(N2CCOCC2)c2c(c1C#N)CC(C)(C)N(C)C2` [3-(isopropylthio)-6,6,7-trimethyl-1-morpholino-5,8-dihydro-2,7-naphthyridine-4-carbonitrile] cannot be ordered by IC50: greater than 50 µM for the first, greater than 50 µM for the second.

`CS(=O)(=O)N1CCN(C/C=C/c2ccccc2)CC1` [1-(methylsulfonyl)-4-(3-phenyl-2-propen-1-yl)piperazine] and `CCn1ncc(CN2CCN(C(=O)Nc3ccccc3C(=O)OC)CC2)c1C` [2-[[4-[(1-ethyl-5-methyl-pyrazol-4-yl)methyl]piperazine-1-carbonyl]amino]benzoic acid methyl ester] cannot be ordered by IC50: greater than 50 µM for the first, greater than 50 µM for the second.

`Fc1ccc(Cn2nnnc2CN2CCN(C3CCCC3)CC2)cc1` [1-Cyclopentyl-4-[1-(4-fluoro-benzyl)-1H-tetrazol-5-ylmethyl]-piperazine] and `Cc1ccc2cc(C(c3nnnn3C3CCCC3)N3CCN(c4ccccc4)CC3)c(=O)[nH]c2c1` (stereo not given) [3-[(1-cyclopentyltetrazol-5-yl)-(4-phenylpiperazin-1-yl)methyl]-7-methyl-1H-quinolin-2-one] cannot be ordered by IC50: greater than 50 µM for the first, greater than 50 µM for the second.

`NC(=O)C1(N2CCCCC2)CCN(C(=O)NC2CCCCC2)CC1` [1-N-cyclohexyl-4-piperidin-1-ylpiperidine-1,4-dicarboxamide] and `CC1CCCC(NC2CCCCNC2=O)C1` (stereo not given) [3-[(3-methylcyclohexyl)amino]-2-azepanone] cannot be ordered by IC50: greater than 50 µM for the first, greater than 50 µM for the second.

`CC(=O)N1CCc2cc(Br)cc(S(=O)(=O)NCc3ccccn3)c21` [1-acetyl-5-bromo-N-(2-pyridinylmethyl)-2,3-dihydroindole-7-sulfonamide] and `O=C(CC1C(=O)NCCN1C(=S)Nc1ccccc1)Nc1ccc2c(c1)OCCO2` (stereo not given) [2-[1-(anilinocarbonothioyl)-3-oxo-2-piperazinyl]-N-(2,3-dihydro-1,4-benzodioxin-6-yl)acetamide] cannot be ordered by IC50: greater than 50 µM for the first, greater than 50 µM for the second.

`Cn1c(-c2cc3ccc(OC(=O)C(C)(C)C)cc3oc2=O)nc2ccccc21` [2,2-Dimethyl-propionic acid 3-(1-methyl-1H-benzoimidazol-2-yl)-2-oxo-2H-chromen-7-yl ester] and `COc1ccc(Nc2oc(-c3ccccc3Cl)nc2C#N)cc1` [2-(2-chlorophenyl)-5-(4-methoxyanilino)-1,3-oxazole-4-carbonitrile] cannot be ordered by IC50: greater than 50 µM for the first, greater than 50 µM for the second.

`O=C(Nc1cccn(Cc2c(Cl)cccc2Cl)c1=O)c1c(Cl)cccc1Cl` [2,6-dichloro-N-[1-(2,6-dichlorobenzyl)-2-keto-3-pyridyl]benzamide] and `COc1ccc(S(=O)(=O)N(C)CC(=O)Nc2ccccc2C(F)(F)F)cc1` [2-[(4-methoxyphenyl)sulfonyl-methyl-amino]-N-[2-(trifluoromethyl)phenyl]acetamide] cannot be ordered by IC50: greater than 50 µM for the first, greater than 50 µM for the second.

`Nc1cc(-c2ccc(Br)cc2)nn1S(=O)(=O)c1cccc2nsnc12` [2-(2,1,3-benzothiadiazol-4-ylsulfonyl)-5-(4-bromophenyl)-3-pyrazolamine] and `COc1ccccc1C1SCCN1S(=O)(=O)c1cccc(C(F)(F)F)c1` (stereo not given) [2-(2-Methoxy-phenyl)-3-(3-trifluoromethyl-benzenesulfonyl)-thiazolidine] cannot be ordered by IC50: greater than 50 µM for the first, greater than 50 µM for the second.

`O=C(O)C1CCCCC1C(=O)Nc1ccc2c(c1)OCCO2` (stereo not given) [2-(2,3-dihydro-1,4-benzodioxin-6-ylcarbamoyl)cyclohexane-1-carboxylic acid] and `O=C1CCC(C(=O)O)(c2ccccc2)C1` (stereo not given) [3-Oxo-1-phenyl-cyclopentanecarboxylic acid] cannot be ordered by IC50: greater than 50 µM for the first, greater than 50 µM for the second.

`Cc1nn(C(C)C(=O)N2CCCCC2)c(=O)c2c1sc1ccccc12` (stereo not given) [2-(2-keto-1-methyl-2-piperidino-ethyl)-4-methyl-benzothiopheno[2,3-d]pyridazin-1-one] and `Cc1cc(C)n(-c2nnc3n2N=C(c2ccccc2)CS3)n1` [3-(3,5-dimethyl-1-pyrazolyl)-6-phenyl-7H-[1,2,4]triazolo[3,4-b][1,3,4]thiadiazine] cannot be ordered by IC50: greater than 50 µM for the first, greater than 50 µM for the second.

`O=C(Cc1ccc(Cl)cc1)NCCN1CCCC1` [2-(4-Chloro-phenyl)-N-(2-pyrrolidin-1-yl-ethyl)-acetamide] and `COc1cc(OC)cc(C(=O)NCCCN2CCOCC2)c1` [3,5-Dimethoxy-N-(3-morpholin-4-yl-propyl)-benzamide] cannot be ordered by IC50: greater than 50 µM for the first, greater than 50 µM for the second.

`CNC(=O)CC(C(=O)O)c1ccc(OCC(C)C)cc1` (stereo not given) [2-(4-Isobutoxy-phenyl)-N-methyl-succinamic acid] and `CCNC(=O)NC(=O)C(C)OC(=O)c1cccnc1SC` (stereo not given) [2-(methylthio)-3-pyridinecarboxylic acid [1-(ethylcarbamoylamino)-1-oxopropan-2-yl] ester] cannot be ordered by IC50: greater than 50 µM for the first, greater than 50 µM for the second.

`C=CCSc1nccc(-c2cc(Cl)sc2Cl)n1` [2-(allylsulfanyl)-4-(2,5-dichloro-3-thienyl)pyrimidine] and `Cc1nc2cccc(C)n2c(=O)c1Cl` [3-chloranyl-2,6-dimethyl-pyrido[1,2-a]pyrimidin-4-one] cannot be ordered by IC50: greater than 50 µM for the first, greater than 50 µM for the second.

`CCC(Sc1nc2nnc(C)c-2c(N)n1-c1cccc(Cl)c1)C(=O)NCCOC` (stereo not given) [2-[4-amino-5-(3-chlorophenyl)-3-methylpyrazolo[3,4-d]pyrimidin-6-yl]sulfanyl-N-(2-methoxyethyl)butanamide] and `Cc1cccc(-n2c(CCn3nc(C)c([N+](=O)[O-])c3C)n[nH]c2=S)c1` [3-(2-{4-nitro-3,5-dimethyl-1H-pyrazol-1-yl}ethyl)-4-(3-methylphenyl)-5-sulfanyl-4H-1,2,4-triazole] cannot be ordered by IC50: greater than 50 µM for the first, greater than 50 µM for the second.

`O=NCc1cc(Br)ccc1OCC(=O)O` [2-[4-bromanyl-2-(hydroxyiminomethyl)phenoxy]ethanoic acid] and `COC(=O)CCc1c(C)[nH]c(=S)[nH]c1=O` [3-(6-methyl-4-oxo-2-sulfanylidene-1H-pyrimidin-5-yl)propanoic acid methyl ester] cannot be ordered by IC50: greater than 50 µM for the first, greater than 50 µM for the second.

`CCN1C(=O)/C(=C/c2nc3ccccc3c(=O)n2-c2ccccc2)c2ccccc21` [2-[(1-ethyl-2-oxo-1,2-dihydro-3H-indol-3-ylidene)methyl]-3-phenyl-4(3H)-quinazolinone] and `CCn1c(SCC(N)=O)nnc1-c1ccc(S(=O)(=O)N2CCN(C)CC2)cc1` [2-[[4-ethyl-5-[4-(4-methylpiperazin-1-yl)sulfonylphenyl]-1,2,4-triazol-3-yl]sulfanyl]acetamide] cannot be ordered by IC50: greater than 50 µM for the first, greater than 50 µM for the second.

Compound `COC(=O)CNC(=O)C12CC3(C)CC(C)(CC(C)(C3)C1)C2` [2-[[oxo-(3,5,7-trimethyl-1-adamantyl)methyl]amino]acetic acid methyl ester] has an IC50 greater than 50 µM.
